US9120854B2, “Detection and treatment of pancreatic, ovarian and other cancers” (SEATTLE GENETICS, INC., priority 2008, dated 2015)
Where two headings read alike, the source gives them in different places. Square brackets hold non-standard residues; d marks the D form. Peptide text beside a SMILES is read from it. Dolaproine = CO[C@@H]([C@@H]1CCCN1)[C@@H](C)C(=O)O; Dil = CC[C@H](C)[C@H](NC)[C@@H](CC(=O)O)OC; NMeV = CN[C@H](C(=O)O)C(C)C

Tests used:
SKOV-3 cells = test: In vitro cytotoxic activity of h1F6 antibody drug conjugates on SKOV-3 cells (CelltiterGlo viability); type: cell-based; conditions: 96 hours, viability by Promega CelltiterGlo
Protocol: (See International Patent Publication WO 2006-113909.) The cells were incubated with the following anti-CD70 antibody drug conjugates: h1F6-vc-MMAF(4), h1F6vc-MMAE(4), 1F6mc-MMAF(4), or h1F6mc-MMAF(8) or free MMAF. (See the specification and U.S. Patent Application Publication Nos. 2005-0238649 and 2006-0233794 for a description of the drug linkers. The number in parentheses after each conjugate indicates the average drug loading per antibody.) The SKOV-3 cells were incubated with the conjugates at the indicated concentrations for 96 hours. For these studies, viability was determined using Promega CelltiterGlo.

[1] = tested on: native CD70 protein (modified cynomolgus CD70); test: Binding of h1F6 to native CD70 on transfected pancreatic cell lines; conditions: transfected HPAFII, PANC-1 and MiaPaCa-2 cell lines

Molecule: CC[C@H](C)[C@@H]([C@@H](CC(=O)N1CCC[C@H]1[C@H](OC)[C@@H](C)C(=O)N[C@@H](Cc1ccccc1)C(=O)O)OC)N(C)C(=O)[C@@H](NC(=O)[C@@H](NC)C(C)C)C(C)C [MMAF, dovaline-valine-dolaisoleunine-dolaproine-phenylalanine, reference compound] (H-[NMeV]V[Dil][Dolaproine]F-OH)
- IC50 (SKOV-3 cells; free MMAF, read-out: IC50): 18 nM

Molecule: h1F6: humanized form of anti-CD70 monoclonal antibody 1F6, binds native CD70
- binding to native CD70 protein [1]: binds

B1: h1F6mc-MMAF(8) (conjugate, chains of the INN, looked up)
VH: QVQLVQSGAEVKKPGASVKVSCKASGYTFTNYGMNWVRQAPGQGLKWMGWINTYTGEPTYADAFKGRVTMTRDTSISTAYMELSRLRSDDTAVYYCARDYGDYGMDYWGQGTTVTVSS
VL: DIVMTQSPDSLAVSLGERATINCRASKSVSTSGYSFMHWYQQKPGQPPKLLIYLASNLESGVPDRFSGSGSGTDFTLTISSLQAEDVAVYYCQHSREVPWTFGQGTKVEIK
modifications: maleimidocaproyl-MMAF, 8 drugs per antibody
- IC50 (SKOV-3 cells): 0.012 µg/mL
